According to patent publication US20250127696A1, “COMPOSITION FOR PREVENTING OR IMPROVING SKIN-AGING CONTAINING A THYMOL ESTER-BASED COMPOUND” (AMOREPACIFIC CORPORATION, priority 2023, published 2025):

What was measured:
Type in all cases: cell-based, human
[1] = system: melanocytes; test: Predicted transcriptome age (RNA-age) of melanocytes; conditions: 10 ppm, 24 hours, vs untreated control; RNAAgeCalc on FPKM data, skin tissue; FIG. 2
Method: (§1) Melanocytes were purchased from Cascade Biologics as cells cultured in the foreskin of newborn African-American males, and cultured using Medium254 medium mixed with human melanocyte growth supplement (Life technologies).
RNA was extracted from melanocytes treated with 10 ppm of Melasolv for 24 hours using TRIzol reagent (Life technologies). This RNA was used to prepare a library using the Illumina TruSeq Stranded Total RNA Library Prep kit (Illumina, San Diego, CA, USA), and then RNA-sequencing was performed using the NovaSeq 6000 platform (Illumina).
Thereafter, a model for predicting age based on approximately 16,000 gene expression values of RNA-seq data was applied to measure the RNA-age of the untreated control melanocytes (—in the graph of FIG. 2) and the RNA-age of the melanocytes treated with Melasolv. Specifically, the RNA-age used RNAAgeCalc package, which can calculate transcriptome age from RNAseq data. Among the transcriptome data, FPKM data was entered as input and skin tissue was entered as an argument for calculation. • (RNAAgeCalc pakage: https://bioconductor.org/packages/release/bioc/html/RNAAgeCalc.html, • Ren X, Kuan P F (2020). “A multi-tissue transcriptional age calculators.” PLOS ONE, 15(8),-20. doi: 10.1371/journal.pone.0237006)

[2] = system: β-galactosidase in melanocytes; test: beta-galactosidase assay (senescence staining) after UVB; conditions: UVB 5 mJ/cm^2 twice at 24-hour intervals, then treated and incubated 2 weeks; vs UVB only; FIG. 4
Method: as §1
Melanocytes were irradiated with 5 mJ/cm^2 of UVB twice at 24-hour intervals using a 1 UVB UV irradiator (Bio-Sun), and then treated with Melasolv and incubated for 2 weeks. To measure the degree of cellular senescence, a beta-galactosidase assay was performed using a beta-gal staining kit from Life technologies. A photograph was taken using an optical microscope (ECLIPSE TS100 from NIKON), and then the number of cells with stained beta-galactosidase was counted.

[3] = system: melanocytes; test: Observation of cell morphology after UVB-induced senescence; conditions: UVB 5 mJ/cm^2 twice at 24-hour intervals, then treated and incubated 2 weeks; FIG. 3
Method: as §1
Melanocytes were irradiated with 5 mJ/cm^2 of UVB twice at 24-hour intervals using a 1 UVB UV irradiator (Bio-Sun), and then treated with Melasolv and incubated for 2 weeks. A photograph of the cells is taken using an optical microscope (ECLIPSE TS100 from NIKON), and the shape of the cells is examined. Referring to FIG. 3, when treated with ultraviolet (UVB) that induce cellular senescence (Chr UVB; Chronic UVB in FIG. 3), it could be confirmed that the skin cells were flattened or enlarged, as shown by three spots that were slightly larger than the others in the middle of the photograph.

COc1cc(/C=C/C(=O)Oc2cc(C)ccc2C(C)C)cc(OC)c1OC [Melasolv, (5-methyl-2-propan-2-ylphenyl) (E)-3-(3,4,5-trimethoxyphenyl) prop-2-enoate]
decrease of RNA-age of melanocytes [1]: about 4 years
β-galactosidase (number of stained cells) [2]: reduced to a statistically significant degree
change in cell morphology (flattened or enlarged cells) [3]: reduces changes in skin cells caused by UVB
